Source: patent US20250270223A1, “CRYSTAL OF SUBSTITUTED PIPERAZINE DERIVATIVE AND PREPARATION METHOD THEREFOR” (Kangbaida (Sichuan) Biotechnology Co., Ltd, priority 2022, published 2025)

How the values were obtained:
[1] = In vivo pharmacokinetic studies (plasma concentration of prototype drug by LC/MS/MS after gavage); settings: ICR male mice fasted overnight, 1 mg/mL suspension in 5% DMSO+30% HP-β-CD, plasma 0-24 h
Description: A proper amount of compound was weighed and 1 mg/mL suspension was prepared using the weighed compound and 5% DMSO+30% HP-β-CD. After ICR male mice fasted overnight, they were administered by gavage and their blood was collected from the jugular venous plexus at different time points of 0, 5 min, 0.25 h, 0.5 h, 1 h, 2 h, 4 h, 8 h, and 24 h. After anticoagulation with EDTA-K2, plasma was separated by centrifugation, and the concentrations of prototype drug in plasma was determined by LC/MS/MS.

[2] = Stability study (lighting, high-temperature, high-humidity, acceleration, intermediate conditions, long-term tests); assay type: physicochemical; settings: light 4,500 lx; 60° C.; 25° C. RH 92.5% and 72.5%; 40° C./75% RH; 30° C./65% RH; 25° C./60% RH
Source text: A proper amount of compound was weighed and placed in a suitable white transparent open container (such as a weighing bottle or petri dish), the container was placed in a lighting stability test chamber for drugs at an illumination of 4,500 lx±500 lx. The samples were taken for testing 5, 10, and 30 days after the placement.
A proper amount of compound was weighed and placed in a suitable open container (such as a weighing bottle or culture dish), the container was placed in an electric heated air-drying oven at 60° C. The samples were taken for testing 5, 10, and 30 days after the placement.
A proper amount of compound was weighed and placed in suitable open container (such as a weighing bottle or petri dish), the container was placed in a KNO3 saturated solution desiccator at a temperature of 25° C.±2° C. and a relative humidity of 92.5% and 72.5% respectively. The samples were taken for testing 5, 10, and 30 days after the placement.
After packaging an appropriate amount of the compound with inner packaging (pharmaceutical low-density polyethylene film, bag) and outer packaging (polyester/aluminum/polyethylene pharmaceutical composite film, bag), the compound was tested at a temperature of 40° C.±2° C. and a relative humidity of 75%±5%. […]

- pharmacokinetic properties [1]: good pharmacokinetic properties
- physical and chemical stability [2]: good physical and chemical stability
Compound: C[C@@H](COCc1cc2n(n1)CCN(c1ncc(C(F)(F)F)cn1)C2)Nc1cn[nH]c(=O)c1C(F)(F)F [crystalline form A, (S)-4-(Trifluoromethyl)-5-((1-((5-(5-(trifluoromethyl)pyrimidin-2-yl)-4,5,6,7-tetrahydropyrazolo[1,5-a]pyrazin-2-yl)methoxy)propan-2-yl)amino)pyridazin-3(2H)-one]
